Data as given in US20090028804A1, “AhR mediators” (SYMRISE GmbH & Co. KG, priority 2005, published 2009).
Where two headings read alike, the source gives them in different places.

Key:
AhR [1] = target: T1, AhR (Homo sapiens, UniProt P35869); test: AhR translocation into the cell nucleus in HaCaT cells transfected with pEGFP-AhR plasmid; format: cell-based; design: host or cells: oral human keratinocyte cancer cells
T1 sequence (P35869 11-848): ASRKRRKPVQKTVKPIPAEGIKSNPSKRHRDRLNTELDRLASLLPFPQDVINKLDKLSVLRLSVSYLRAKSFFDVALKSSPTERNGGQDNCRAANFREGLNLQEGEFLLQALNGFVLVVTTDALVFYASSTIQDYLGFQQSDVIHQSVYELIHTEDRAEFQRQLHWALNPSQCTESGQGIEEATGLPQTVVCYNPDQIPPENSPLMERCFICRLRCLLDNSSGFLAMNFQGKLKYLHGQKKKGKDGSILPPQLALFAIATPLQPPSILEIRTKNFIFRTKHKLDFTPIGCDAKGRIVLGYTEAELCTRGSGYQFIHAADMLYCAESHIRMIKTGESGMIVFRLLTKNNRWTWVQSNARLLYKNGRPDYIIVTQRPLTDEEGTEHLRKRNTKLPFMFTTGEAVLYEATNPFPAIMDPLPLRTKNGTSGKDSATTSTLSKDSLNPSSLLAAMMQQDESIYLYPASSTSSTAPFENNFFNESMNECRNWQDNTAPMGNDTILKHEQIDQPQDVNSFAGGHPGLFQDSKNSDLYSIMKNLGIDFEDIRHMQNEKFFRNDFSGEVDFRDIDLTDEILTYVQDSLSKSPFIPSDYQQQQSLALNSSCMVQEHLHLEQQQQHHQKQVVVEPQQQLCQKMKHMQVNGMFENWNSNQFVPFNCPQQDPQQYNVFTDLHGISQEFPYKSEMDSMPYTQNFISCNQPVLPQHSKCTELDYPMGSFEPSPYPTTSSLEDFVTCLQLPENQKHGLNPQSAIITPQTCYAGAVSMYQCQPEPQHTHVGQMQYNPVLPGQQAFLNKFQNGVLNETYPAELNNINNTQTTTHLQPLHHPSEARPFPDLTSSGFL
Protocol: (§1) HaCaT keratinocytes were cultured in DMEM medium with 10% fetal calf serum. The cells were irradiated with UVB radiation in PBS (phosphate-buffered saline). For UVB irradiation, we used a TL20W/12RS lamp which contains four parallel tubes (Philips, Eindhoven, Netherlands) and emits the majority of its energy in the UVB range (290-320 nm). The emission peak of the lamp is at 310 nm. Control cells were subjected to identical treatment, but were not irradiated. In order to inhibit the AhR, the cells were treated with the test substance 1 h before irradiation.
HaCaT cells were plated out onto chambered microscope slides with a cell density of 5×10^4 cells/chamber. Some were pretreated with the test substance for 1 h. After 24 h, said cells were transfected with the pEGFP-AhR plasmid by means of the FuGene 6 transfection reagent (Roche, Mannheim, Germany) in accordance with the manufacturer's instructions After a further 24 h, transfected cells were irradiated with […] of UVB. After 40 min, the cells were fixed for 10 min with 4% paraformaldehyde and washed with PBS. The microscope slides were dried and mounted with Vectashield Mounting Medium (Vector Laboratories, Burlingame, Calif., USA). The AhR coupled to the GFP was visualized by means of a fluorescence microscope (Olympus, Hamburg, Germany) and photographed with a ColorViewXS digital camera (Olympus).

[2] = system: primary mouse melanocytes; test: Melanin content of primary mouse melanocytes, photometric at 405 nm; format: cell-based
Protocol: The cells were removed, lysed with 0.1% Triton-X100, centrifuged and the melanin content from the lysate pellet was determined photometrically in an ELISA reader at 405 nm after cell disruption with 1M NH4OH (4 h, 85° C.). The blank reading, which contained only NH4OH, was subtracted from the absorption value. In parallel, the protein content of the lysate supernatants was determined by the Bradford method.
Semiconfluent primary mouse melanocytes (culture conditions as above) were further cultured for 7 days with 10 μM MNF. The cells were removed, lysed with 0.1% Triton-X100, centrifuged and the melanin content from the lysate pellet was determined photometrically in an ELISA reader at 405 nm after cell disruption with 1M NH4OH (4 h, 85° C.). The blank reading, which contained only NH4OH, was subtracted from the absorption value.

AhR [3] = target: T1, AhR; test: AhR translocation in primary mouse melanocytes transfected with pEGFP-AhR plasmid; format: cell-based; design: expressed in transfected cells; host or cells: primary mouse melanocytes; details: in the presence and absence of benzo[a]pyrene
Protocol: Primary mouse melanocyte cells were plated out onto chambered microscope slides. Individual chambers were treated for 1 h with the test substances. After 24 h, the cells were transfected with the pEGFP-AhR plasmid. After a further 40 min, the cells were fixed. The microscope slides were evaluated by fluorescence microscopy. Translocation of the AhR, which is coupled to the GFP and thus fluoresces green, from the cytoplasm into the cell nucleus is visible.

MMP-1 = details: cited from earlier work
[4] = Photostability on irradiation with UVB radiation; format: physicochemical; details: photostable = no more than 10 mol % converted on UVB (40 W/m^2) for 2 hours
Protocol: For the purposes of the present invention, a photostable substance is one which, on irradiation with UVB radiation (40 W/m^2) for 2 hours, is no more than 10 mol % converted into one or more other substances. All-trans-retinoic acid, for example, is accordingly not a preferred AhR antagonist, as this substance is photolabile.

AhR [5] = target: T1, AhR; design: host or cells: oral human keratinocyte cancer cells; details: cited from earlier work
CYP1A1 = test: UVB-induced CYP1A1 induction in HaCaT keratinocytes, real time RT-PCR; format: cell-based, human
Protocol: as §1
HaCaT cells were irradiated with 100 J/m^2 of UVB. Some cells were pretreated with the test substance 1 h before irradiation. After 4 h, the RNA was prepared using the RNeasy kit (Qiagen, Hilden, Germany) in accordance with the manufacturer's instructions. Reverse transcription was carried out as described (Arch. Toxicol (2005) PMID 16205913). PCR fragments were amplified by means of real-time PCR in a LightCycler (Roche, Mannheim, Germany). The PCR mix was made up of 1/10 volume of QuantiTec® SYBR Green PCR Master Mixes F (Qiagen, Hilden, Germany), 0.5 μM of the particular primer, 2 μl of cDNA and DEPC-treated (diethyl pyrocarbonate-treated) H2O in a final volume of 20 μl. […] PCR conditions were as follows: 40 cycles of 15 sec 94° C. for denaturation, 25 sec 60° C. for primer attachment, 30 sec 72° C. for extension and 2 sec 72° C. for fluorescence measurement. […] The PCR products were quantified by means of a fragment-specific standard curve and analysis with LightCycler Software 3. […]
HaCaT cells were irradiated with 100 J/m^2 of UVB. […] The PCR mix was made up of 1/10 volume of QuantiTect® SYBR Green PCR Master Mixes (Qiagen, Hilden, Germany), 0.5 μM of the particular primer, 2 μl of cDNA and DEPC-treated (diethyl pyrocarbonate-treated) H2O in a final volume of 20 μl. […] PCR conditions were as follows: 40 cycles of 15 sec 94° C. for denaturation, 25 sec 60° C. for primer attachment, 30 sec 72° C. for extension and 2 sec 72° C. for fluorescence measurement. […]

AhR [6] = target: T1, AhR; details: human breast epithelium cells; cited from earlier work
AhR [7] = target: T1, AhR; details: human breast cancer cell line MCF-7; cited from earlier work
AhR [8] = target: T1, AhR; details: human liver cancer cell line HepG2; cited from earlier work
[9] = in the absence of UVB radiation

Compound: COc1cc(-c2cc(=O)c3ccccc3o2)ccc1[N+](=O)[O-] [3-methoxy-4-nitroflavone]
- AhR translocation into the cell nucleus (AhR [1]; HaCaT, in the presence and absence of UVB light): inhibited AhR translocation
- melanin content versus untreated cells ([2]; 10 μM, 7 days, p<0.05 (FIG. 4)): significantly less melanin
- AhR translocation into the cell nucleus (AhR [3]): inhibited AhR translocation

Compound: CC1=C(/C=C/C(C)=C/C=C/C(C)=C/C(=O)O)C(C)(C)CCC1 [All-trans-retinoic acid]
- TCDD-induced expression of MMP-1 (MMP-1): enhancing TCDD-induced expression of MMP-1
- photostability [4]: photolabile
- AhR activity (AhR [5]; in the absence of TCDD): without influencing AhR activity
- TCDD-induced AhR activation (AhR [5]; normal human keratinocytes): inhibits TCDD-induced AhR activation

Compound: C/C=C/c1cc(OC)c2c(c1)C(C)C(c1ccc(O)c(OC)c1)O2 (stereo not drawn) [Compound (X)]
- translocation of AhR from the cytoplasm into the cell nucleus induced by the compound itself (AhR [1]; [9]): do not induce translocation of AhR
- CYP1A1 inhibition in the presence of UVB light (CYP1A1; 0.0001 wt. %, HaCaT, 100 J/m^2 UVB, relative to control (PBS without test substances with 0.1% DMSO, UVB-irradiated)): 20%
- induction of CYP1A1 as a result of AhR activation in the presence of UVB light (CYP1A1; HaCaT, UVB light): inhibited induction of CYP1A1
- induction of an AhR-inducible gene, in particular CYP1A1, by the compound itself (CYP1A1; [9]): does not itself bring about induction

Compound: O=Cc1c2[nH]c3ccccc3c2cc2[nH]c3ccccc3c12 [FICZ, formylindolo(3,2b)carbazole]
- melanin content versus untreated cells ([2]; 2 days with UVB-irradiated 50 mM tryptophan solution containing FICZ, p<0.05 (FIG. 3)): significantly more melanin
- AhR translocation into the cell nucleus (AhR [3]): stimulated AhR translocation

Compound: O=C1c2ccccc2-c2n[nH]c3cccc1c23 [anthra[1,9-cd]pyrazol-6(2H)-one]
- action of the AhR agonist TCDD (AhR [6]): capable of inhibiting the action

Compound: O=c1cc(-c2ccc(O)c(O)c2)oc2cc(O)cc(O)c12 [luteolin]
- action of AhR (AhR [7]): has no effect
- action of AhR (AhR [8]): acts as an AhR inhibitor

Compound: O=c1c(O)c(-c2ccc(O)c(O)c2)oc2cc(O)cc(O)c12 [quercetin]
- action of AhR (AhR [7]): prevents the action of AhR
- action of AhR (AhR [8]): has no effect
